ChEMBL document CHEMBL5634140, “Discovery of benzyloxy benzamide derivatives as potent neuroprotective agents against ischemic stroke” (Eur J Med Chem, 2023)
In brackets after ≈: the same amount, converted by molar mass. Activity calls are given as the source filed them. No cut-off for these calls is given here.

What was measured:
[1] = Half life in Sprague-Dawley rat at 10 mg/kg, po measured upto 24 hrs by LC-MS/MS analysis; assay type: ADME, organism-based; conditions: in vivo
[2] = Tmax in Sprague-Dawley rat at 10 mg/kg, po measured upto 24 hrs by LC-MS/MS analysis; assay type: ADME, organism-based; conditions: in vivo
[3] = Cmax in Sprague-Dawley rat at 10 mg/kg, po measured upto 24 hrs by LC-MS/MS analysis; assay type: ADME, organism-based; conditions: in vivo
[4] = AUC(0 to t) in Sprague-Dawley rat at 10 mg/kg, po measured upto 24 hrs by LC-MS/MS analysis; assay type: ADME, organism-based; conditions: in vivo
[5] = AUC(0 to infinity) in Sprague-Dawley rat at 10 mg/kg, po measured upto 24 hrs by LC-MS/MS analysis; assay type: ADME, organism-based; conditions: in vivo
[6] = Mean residence time in Sprague-Dawley rat at 10 mg/kg, po measured upto 24 hrs by LC-MS/MS analysis; assay type: ADME, organism-based; conditions: in vivo
[7] = Oral bioavailability in Sprague-Dawley rat at 10 mg/kg measured upto 24 hrs by LC-MS/MS analysis; assay type: ADME, organism-based; conditions: in vivo
Neuron [8] = assay: Neuroprotective activity against glutamate-induced excitotoxicity in rat primary neurons at 0.1 uM; assay type: functional, cell-based
Neuron [9] = assay: Inhibition of PSD95 to nNOS protein-protein interaction in glutamate induced rat neurons at 2 to 20 uM by co-immunoprecipitation method; assay type: cell-based; conditions: dose 2-20 µM
[10] = Drug concentration in Sprague-Dawley rat brain at 10 mg/kg, iv after 0.5 hrs by LC-MS/MS analysis; assay type: ADME, organism-based; conditions: read-out: Ct
[11] = Solubility of the compound at pH 7.4; assay type: physicochemical; conditions: buffer
[12] = Drug concentration in Sprague-Dawley rat plasma at 10 mg/kg, iv after 0.5 hrs by LC-MS/MS analysis; assay type: ADME, organism-based
[13] = Ratio of drug concentration in Sprague-Dawley rat brain to plasma at 10 mg/kg, iv measured after 0.25 hrs by LC-MS/MS analysis; assay type: ADME, organism-based
[14] = Drug concentration in Sprague-Dawley rat plasma at 10 mg/kg, iv after 0.25 hrs by LC-MS/MS analysis; assay type: ADME, organism-based
[15] = Drug concentration in Sprague-Dawley rat brain at 10 mg/kg, iv after 0.25 hrs by LC-MS/MS analysis; assay type: ADME, organism-based; conditions: read-out: Ct
[16] = Ratio of drug concentration in Sprague-Dawley rat brain to plasma at 10 mg/kg, iv measured after 0.5 hrs by LC-MS/MS analysis; assay type: ADME, organism-based
[17] = Drug concentration in Sprague-Dawley rat plasma at 10 mg/kg, iv after 1 hr by LC-MS/MS analysis; assay type: ADME, organism-based
[18] = Drug concentration in Sprague-Dawley rat brain at 10 mg/kg, iv after 1 hr by LC-MS/MS analysis; assay type: ADME, organism-based; conditions: read-out: Ct
[19] = Ratio of drug concentration in Sprague-Dawley rat brain to plasma at 10 mg/kg, iv measured after 1 hr by LC-MS/MS analysis; assay type: ADME, organism-based
Rattus norvegicus [20] = assay: Neuroprotective activity against MCAO-reperfusion induced Sprague-Dawley rat assessed as reduction in infarct volume at 10 mg/kg, ip by TTC staining based analysis (reference value: 40.02 +/- 2.61 %); assay type: functional; set-up: scale not given: the % may be the effect or the level left
Rattus norvegicus [21] = assay: Neuroprotective activity against MCAO-reperfusion induced Sprague-Dawley rat assessed as reduction in neurological deficit score at 10 mg/kg, ip by TTC staining based analysis (reference value: 2.93 +/- 0.12); assay type: functional
[22] = Half life in Sprague-Dawley rat at 2 mg/kg, iv measured upto 24 hrs by LC-MS/MS analysis; assay type: ADME, organism-based; conditions: in vivo
[23] = Cmax in Sprague-Dawley rat at 2 mg/kg, iv measured upto 24 hrs by LC-MS/MS analysis; assay type: ADME, organism-based; conditions: in vivo
[24] = AUC(0 to t) in Sprague-Dawley rat at 2 mg/kg, iv measured upto 24 hrs by LC-MS/MS analysis; assay type: ADME, organism-based; conditions: in vivo
[25] = AUC(0 to infinity) in Sprague-Dawley rat at 2 mg/kg, iv measured upto 24 hrs by LC-MS/MS analysis; assay type: ADME, organism-based; conditions: in vivo
[26] = Apparent volume of distribution in Sprague-Dawley rat at 2 mg/kg, iv measured upto 24 hrs by LC-MS/MS analysis; assay type: ADME, organism-based; conditions: in vivo, read-out: Vz
[27] = Apparent clearance in Sprague-Dawley rat at 2 mg/kg, iv measured upto 24 hrs by LC-MS/MS analysis; assay type: ADME, organism-based; conditions: in vivo, read-out: CL(app)
[28] = Mean residence time in Sprague-Dawley rat at 2 mg/kg, iv measured upto 24 hrs by LC-MS/MS analysis; assay type: ADME, organism-based; conditions: in vivo
SH-SY5Y [29] = assay: Cytotoxicity against human SH-SY5Y cells at 25 uM incubated for 72 hrs by CCK8 assay; assay type: toxicity, cell-based
SH-SY5Y [30] = assay: Neuroprotective activity against glutamate induced human SH-SY5Y cells at 10 uM preincubated for 30 mins followed by glutamate addition and measured after 24 hrs by LDH based assay; assay type: functional; conditions: time 24.5 hrs
SH-SY5Y [31] = assay: Neuroprotective activity against glutamate induced human SH-SY5Y cells at 1 uM preincubated for 30 mins followed by glutamate addition and measured after 24 hrs by LDH based assay; assay type: functional; conditions: time 24.5 hrs
SH-SY5Y [32] = assay: Neuroprotective activity against glutamate induced human SH-SY5Y cells at 0.1 uM preincubated for 30 mins followed by glutamate addition and measured after 24 hrs by LDH based assay; assay type: functional; conditions: time 24.5 hrs
Cortical neurone = assay: Neuroprotective activity against glutamate induced Sprague-Dawley rat primary cortical neuron at 0.1 to 10 uM preincubated for 30 mins followed by glutamate/glycine addition for 30 mins and measured after 24 hrs by LDH based assay; assay type: functional, cell-based; conditions: dose 0.1-10 µM, time 25.0 hrs
[33] = Half life in Sprague-Dawley rat at 5 mg/kg, iv measured upto 24 hrs by LC-MS/MS analysis; assay type: ADME, organism-based; conditions: in vivo
[34] = Cmax in Sprague-Dawley rat at 5 mg/kg, iv measured upto 24 hrs by LC-MS/MS analysis; assay type: ADME, organism-based; conditions: in vivo
[35] = AUC(0 to t) in Sprague-Dawley rat at 5 mg/kg, iv measured upto 24 hrs by LC-MS/MS analysis; assay type: ADME, organism-based; conditions: in vivo
[36] = AUC(0 to infinity) in Sprague-Dawley rat at 5 mg/kg, iv measured upto 24 hrs by LC-MS/MS analysis; assay type: ADME, organism-based; conditions: in vivo
[37] = Apparent volume of distribution in Sprague-Dawley rat at 5 mg/kg, iv measured upto 24 hrs by LC-MS/MS analysis; assay type: ADME, organism-based; conditions: in vivo, read-out: Vz
[38] = Mean residence time in Sprague-Dawley rat at 5 mg/kg, iv measured upto 24 hrs by LC-MS/MS analysis; assay type: ADME, organism-based; conditions: in vivo

## NCC(=O)Nc1cc(Cl)cc(Cl)c1OCc1ccc(C(=O)Nc2ccccc2N)cc1
[1]
  half-life: 4.26 h
[2]
  Tmax: 0.83 h
[3]
  Cmax: 233 ng/mL
[4]
  AUC(0-t) at 24 h: 1240 ng·h/mL
[5]; Sprague-Dawley
  AUC(0-inf): 1260 ng·h/mL
[6]
  MRT: 3.26 h
[7]; Sprague-Dawley
  bioavailability: 19.6%
Neuron [8]
  Activity: Active
Neuron [9]
  inhibition: Active
[10]
  concentration at 0.5 h: 7.64 ng/g
[11]
  solubility: 23 µg/mL (≈ 50.1 µM)
[12]
  concentration at 0.5 h: 935 ng/mL
[13]
  Kp at 0.25 h: 0.0056
[14]
  concentration at 0.25 h: 1890 ng/mL
[15]
  concentration at 0.25 h: 10.6 ng/g
[16]
  Kp at 0.5 h: 0.0082
[17]
  concentration at 1 h: 329 ng/mL
[18]
  concentration at 1 h: 10 ng/g
[19]
  Kp at 1 h: 0.0305
Rattus norvegicus [20]
  Activity: 28.31%
Rattus norvegicus [21]
  Activity: 2.27
[22]
  half-life: 4.08 h
[23]
  Cmax: 2510 ng/mL
[24]
  AUC(0-t) at 24 h: 1270 ng·h/mL
[25]
  AUC(0-inf): 1280 ng·h/mL
[26]
  Vd: 8.81 L/kg
[27]
  clearance: 26.4 mL/min/kg
[28]
  MRT: 1.46 h

## CS(=O)(=O)Nc1ccc(COc2c(N)cc(Cl)cc2Cl)cc1
SH-SY5Y [29]
  Activity: 3.57%
SH-SY5Y [30]
  Activity: 69.19%
SH-SY5Y [31]
  Activity: 45.26%
SH-SY5Y [32]
  Activity: 15.4%

## NCCCNC(=O)c1ccc(COc2c(N)cc(Cl)cc2Cl)cc1
SH-SY5Y [29]
  Activity: 1.77%
SH-SY5Y [30]
  Activity: 61.33%
SH-SY5Y [31]
  Activity: 39.65%
SH-SY5Y [32]
  Activity: 21.18%
Cortical neurone
  Activity: Active
[1]
  half-life: 1.96 h
[33]
  half-life: 2.67 h
[2]
  Tmax: 1.5 h
[3]
  Cmax: 69.3 ng/mL
[34]
  Cmax: 471 ng/mL
[4]
  AUC(0-t) at 24 h: 309 ng·h/mL
[35]
  AUC(0-t) at 24 h: 296 ng·h/mL
[5]; po, 10 mg/kg, 24 h
  AUC: 365.22 ng·h/mL
[36]
  AUC: 317.96 ng·h/mL
[37]
  Vd: 24.7 L/kg
[6]
  MRT: 3.26 h
[38]
  MRT: 1.46 h
[7]; po, 10 mg/kg, 24 h
  F: 21.79%

## Nc1cc(Cl)cc(Cl)c1OCc1ccc(C(=O)N[C@@H]2CCCC[C@H]2N)cc1
SH-SY5Y [29]
  Activity: 2.51%
SH-SY5Y [30]
  Activity: 63.06%
SH-SY5Y [31]
  Activity: 41.87%
SH-SY5Y [32]
  Activity: 12.32%

## Nc1cc(Cl)cc(Cl)c1OCc1ccc(C(=O)NCCO)cc1
SH-SY5Y [29]
  Activity: 1.21%
SH-SY5Y [30]
  Activity: 41.58%
SH-SY5Y [31]
  Activity: 26.31%
SH-SY5Y [32]
  Activity: 4%

## Nc1cc(Cl)cc(Cl)c1OCc1ccc(NS(=O)(=O)c2ccccc2)cc1
SH-SY5Y [29]
  Activity: 1.96%
SH-SY5Y [30]
  Activity: 64.69%
SH-SY5Y [31]
  Activity: 38.63%
SH-SY5Y [32]
  Activity: 15.64%

## Nc1ccccc1NC(=O)c1ccc(COc2c(N)cc(Cl)cc2Cl)cc1
SH-SY5Y [29]
  Activity: 0.24%
SH-SY5Y [30]
  Activity: 63.3%
SH-SY5Y [31]
  Activity: 41.87%
SH-SY5Y [32]
  Activity: 14.78%

## Nc1cc(Cl)cc(Cl)c1OCc1ccc(C(=O)NCC(=O)O)cc1
SH-SY5Y [29]
  Activity: 5.67%
SH-SY5Y [30]
  Activity: 66.01%
SH-SY5Y [31]
  Activity: 47.04%
SH-SY5Y [32]
  Activity: 18.96%

## CN(C)CCNC(=O)c1ccc(COc2c(N)cc(Cl)cc2Cl)cc1
SH-SY5Y [29]
  Activity: 1.52%
SH-SY5Y [30]
  Activity: 32.3%
SH-SY5Y [31]
  Activity: 15.63%
SH-SY5Y [32]
  Activity: 2.56%

## C[C@@H](N)CNC(=O)c1ccc(COc2c(N)cc(Cl)cc2Cl)cc1
SH-SY5Y [29]
  Activity: 3.13%
SH-SY5Y [30]
  Activity: 63.79%
SH-SY5Y [31]
  Activity: 41.38%
SH-SY5Y [32]
  Activity: 13.55%
